Read-outs that look alike come from different tables or passages of the source.
How the values were obtained:
[1] = in vivo; set-up: species or system SD rats; conditions: rat, po, 15 mg/kg
Method: Eighteen SD male rats (purchased from Weitong Lihua Experimental Animal Technology Co., Ltd., certificate number: 20211103Aazz0619000910), weighing 240-280 g, were randomly divided into 6 groups, with 3 rats in each group. The animals were fasted overnight before administration. On the day of administration, the compounds of Examples 3, 4, 5, 6, Compound A. and Compound A methyl ester were gavaged to the animals in each groups respectively, and the dosage was 15 mg/kg (calculated as Compound A). Before administration and 0.25, 0.5, 1, 2, 4, 6, 8, and 24 h after administration, 0.15 mL of blood was collected from the animals through the jugular sinus and placed in an EDTA-K2 anticoagulant tube containing 3 μL of dichlorvos aqueous solution (10 mg/mL). After centrifugation, plasma was collected, and was placed in the sample, and then 10 μL of plasma sample was taken, 500 μL of acetonitrile containing IS (verapamil 5 ng·mL^−1, glibenclamide 50 ng·mL^−1, tolbutamide 200 ng·mL^−1, and diclofenac 200 ng·mL^−1) was added, vortexed for 10 min, and then centrifuged at 3700 rpm for 10 min, and then 70 μL of supernatant and 70 μL of water were added, and vortexed for 10 min. An aliquot of 2 μL of the mixture was injected into the LC-MS/MS system (Triple Quad 5500+: LC-MS-MS-022) to measure blood concentration of the compounds. WinNonlin 8.0 software was used to analyze the pharmacokinetic parameters.

[2] = system: adenosine diphosphate (ADP)-induced platelet aggregation; conditions: rabbit; from CN101851209B; cited from earlier work
[3] = background statement; cited from earlier work
[4] = background statement; cited from earlier work; remark: listed apart in the source
[5] = system: arteriovenous bypass thrombi in rats; assay: Antithrombotic activity in vivo: arteriovenous bypass thrombosis in rats; conditions: for inhibition at 15 mg/kg: Rattus norvegicus, po
Method: Each group was given corresponding drugs by gavage (dosage was 15 mg/kg), and the normal control group was given an equal volume of solvent, all of which were given by single gavage. One hour after the last administration, the rats were anesthetized with 3% chloral hydrate intraperitoneally, and the right common carotid artery and left external jugular vein were isolated in a supine position. A polyethylene tube was taken with an inner diameter of 1.5 mm and a length of 10 cm, a 6 cm long silk thread (pre-weighed) was inserted into it, and the polyethylene tube was filled with normal saline solution of heparin (50 U/ml). One end of the polyethylene tube was inserted into the left external jugular vein, heparin (50 U/kg) was injected, and the other end was inserted into the right common carotid artery. After blood flow was opened for 15 minutes, the blood flow was interrupted and the silk thread was quickly taken out and weighed. The total weight minus the original silk thread weight was the wet weight of the thrombus. The silk thread was placed in an oven for drying at 70° C. The dry weight of the thrombus was obtained by weighing the silk thread minus the original silk thread weight, and the inhibition rate was calculated.

Structure (SMILES) | AUC(0-inf) [1] [ng·h/mL] | AUC(0-t) [1] [ng·h/mL] | Cmax [1] [ng/mL] | F (bioavailability relative to compound A) [1] [%] | MRT last [1] [h] | Tmax [1] [h] | half-life [1] [h] | Inhibitory effect on ADP-induced platelet aggregation [2] | Oral bioavailability [3] | Ability to penetrate the blood-brain barrier [4] | inhibition at 15 mg/kg ([5]; read-out: Inhibition rate (thrombus dry weight)) [%] | inhibition at 15 mg/kg ([5]; read-out: Inhibition rate (thrombus wet weight)) [%] | Thrombus wet weight ([5]; rat arteriovenous bypass, 15 mg/kg single gavage, 1 h after dosing, 15 min blood flow, x ± s, n = 8) | Thrombus dry weight ([5]; rat arteriovenous bypass, 15 mg/kg single gavage, thread dried at 70° C., x ± s, n = 8)
COc1cc(C(=O)OCCCCCC(=O)O)ccc1OCCn1ccnc1 [Example 3, 6-(4-(2-(1H-imidazol-1-yl)ethoxy)-3-methoxybenzoyloxy)hexanoic acid] | 3380 | 3230 | 8590 | 200.37 | 0.47 | 0.25 | 3.06 |  |  |  |  |  |  | 
COc1cc(C(=O)OC(C)OC(C)=O)ccc1OCCn1ccnc1 (centres unmarked) [Example 6, 1-acetoxyethyl-4-(2-(1H-imidazol-1-yl)ethoxy)-3-methoxybenzoate] | 3170 | 2850 | 8140 | 176.8 | 1.09 | 0.25 | 4.86 |  |  |  |  |  |  | 
COc1cc(C(=O)O)ccc1OCCn1ccnc1 [Compound A, reference compound] | 1720 | 1610 | 604 |  | 5.4 | 0.35 | 10.7 | significant inhibitory effect | low | weak | 36 | 31 | 69.8 ± 11.2^★★ mg | 21.8 ± 6.0^★★ mg
COc1cc(C(=O)OCOC(=O)OC(C)C)ccc1OCCn1ccnc1 [Example 5, ((isopropoxycarbonyl)oxy)methyl-4-(2-(1H-imidazol-1-yl)ethoxy)-3-methoxybenzoate] | 3000 | 2890 | 7080 | 179.28 | 0.85 | 0.25 | 3.43 |  |  |  |  |  |  | 
COC(=O)c1ccc(OCCn2ccnc2)c(OC)c1 [Compound A methyl ester, reference compound] | 1600 | 1490 | 513 | 92.18 | 6.5 | 0.46 | 8.4 |  |  |  |  |  |  | 

Source: patent US20260285815A1, “Imidazolidinyl Vanillic Acid Ether Derivative and Use Thereof” (priority 2022, published 2026)
